Key:
ALOMY = assay: Pre-emergence action at 320 g/ha against ALOMY; assay type: in vivo, Alopecurus myosuroides; settings: scored visually after about 3 weeks vs untreated controls (100% = plants have died)
Outline: (§1)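 Pre-emergence soil-surface spray: WP or EC formulation, aqueous, 0.5% additive, 600 l/ha water volume. Greenhouse growth about 3 weeks; visual percent effect relative to untreated pots.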

AVEFA = assay: Pre-emergence action at 320 g/ha against AVEFA; assay type: in vivo; settings: visual scoring after about 3 weeks vs untreated controls
Outline: as §1

DIGSA = assay: Pre-emergence action at 320 g/ha against DIGSA; assay type: in vivo, Digitaria sanguinalis; settings: visual scoring after about 3 weeks vs untreated controls
Outline: as §1

ECHGC = assay: Pre-emergence action at 320 g/ha against ECHGC; assay type: in vivo, Echinochloa crus-galli; settings: visual scoring after about 3 weeks vs untreated controls
Outline: as §1

LOLRI = assay: Pre-emergence action at 320 g/ha against LOLRI; assay type: in vivo, Lolium rigidum; settings: visual scoring after about 3 weeks vs untreated controls
Outline: as §1

SETVI = assay: Pre-emergence action at 320 g/ha against SETVI; assay type: in vivo, Setaria viridis; settings: visual scoring after about 3 weeks vs untreated controls
Outline: as §1

ABUTH = assay: Pre-emergence action at 320 g/ha against ABUTH; assay type: in vivo, Abutilon theophrasti; settings: greenhouse, scored visually after about 3 weeks vs untreated controls, 100% = plants have died, 0% = like control plants
Excerpt: b) Seeds of monocotyledonous and dicotyledonous weed plants and crop plants are placed in plastic or organic planting pots and covered with soil. The compounds of the invention, formulated in the form of wettable powders (WP) or as emulsion concentrates (EC), are then applied onto the surface of the covering soil as aqueous suspension or emulsion with addition of 0.5% additive at a water application rate of 600 l/ha (converted). After the treatment, the pots are placed in a greenhouse and kept under good growth conditions for the trial plants. After about 3 weeks, the effect of the preparations is scored visually in comparison with untreated controls as percentages. For example, 100% activity=the plants have died, 0% activity=like control plants. Tables 13 to 26 below show the effects of selected compounds of the general formula (I) on various harmful plants and at an application rate corresponding to 320 g/ha, which were obtained by the experimental procedure mentioned above.

AMARE = assay: Pre-emergence action at 320 g/ha against AMARE; assay type: in vivo, Amaranthus retroflexus; settings: visual scoring after about 3 weeks vs untreated controls
Outline: as §1

MATIN = assay: Pre-emergence action at 320 g/ha against MATIN; assay type: in vivo, Tripleurospermum inodorum (Matricaria inodora); settings: visual scoring after about 3 weeks vs untreated controls
Outline: as §1

POLCO = assay: Pre-emergence action at 320 g/ha against POLCO; assay type: in vivo, Fallopia convolvulus (Polygonum convolvulus); settings: visual scoring after about 3 weeks vs untreated controls
Outline: as §1

VERPE = assay: Pre-emergence action at 320 g/ha against VERPE; assay type: in vivo, Veronica persica; settings: visual scoring after about 3 weeks vs untreated controls
Outline: as §1

VIOTR = assay: Pre-emergence action at 320 g/ha against VIOTR; assay type: in vivo, Viola tricolor; settings: dosage 320 g/ha
Outline: as §1

## CCOC(=O)[C@@H](C)Oc1nn(-c2ccccc2F)c(-c2cncc(F)c2)c1Br [VII-130]
ALOMY
  Pre-emergence action at 320 g/ha against ALOMY in %: 100%
AVEFA
  Pre-emergence action against AVEFA in %: 90%
DIGSA
  Pre-emergence action against DIGSA in %: 100%
ECHGC
  Pre-emergence action against ECHGC in %: 90%
LOLRI
  Pre-emergence action against LOLRI in %: 100%
SETVI
  Pre-emergence action against SETVI in %: 100%
ABUTH
  Pre-emergence action at 320 g/ha against ABUTH in %: 90%
AMARE
  Pre-emergence action against AMARE in %: 100%
MATIN
  Pre-emergence action against MATIN in %: 100%
POLCO
  Pre-emergence action against POLCO in %: 100%
VERPE
  Pre-emergence action against VERPE in %: 100%
VIOTR
  Pre-emergence action against VIOTR in %: 100%

## C[C@@H](Oc1nn(-c2cc(F)ccc2F)c(-c2cncc(F)c2)c1Br)C(=O)O [VII-137]
ALOMY
  Pre-emergence action at 320 g/ha against ALOMY in %: 100%
AVEFA
  Pre-emergence action against AVEFA in %: 90%
ECHGC
  Pre-emergence action against ECHGC in %: 90%
LOLRI
  Pre-emergence action against LOLRI in %: 100%
SETVI
  Pre-emergence action against SETVI in %: 100%
ABUTH
  Pre-emergence action at 320 g/ha against ABUTH in %: 90%
AMARE
  Pre-emergence action against AMARE in %: 100%
MATIN
  Pre-emergence action against MATIN in %: 90%
POLCO
  Pre-emergence action against POLCO in %: 90%
VERPE
  Pre-emergence action against VERPE in %: 100%
VIOTR
  Pre-emergence action against VIOTR in %: 100%

— patent publication US12180187B2, “1-phenyl-5-azinylpyrazolyl-3-oxyalkyl acids and their use for controlling unwanted plant growth” (BAYER AKTIENGESELLSCHAFT, priority 2019, dated 2024)
